Assay results: PMC5632727, “Boeravinone B, A Novel Dual Inhibitor of NorA Bacterial Efflux Pump of Staphylococcus aureus and Human P-Glycoprotein, Reduces the Biofilm Formation and Intracellular Invasion of Bacteria” (Frontiers in Microbiology, 2017)
Where two headings read alike, the source gives them in different places.

How the values were obtained:
Assay type in all cases: cell-based
[1] = target: T1, NorA multidrug efflux pump (Staphylococcus aureus, UniProt Q03325); assay: ethidium bromide efflux and accumulation in NorA-overexpressing SA-1199B cells; no effect in norA knockout SA-K1758
T1 construct: gene norA1199

[2] = target: T1, NorA multidrug efflux pump; assay: fluorescent efflux and accumulation in NorA-overexpressing, wild-type and knockout S. aureus cells
[3] = target: T1, NorA multidrug efflux pump

T1 sequence (Q03325 entry or part of it): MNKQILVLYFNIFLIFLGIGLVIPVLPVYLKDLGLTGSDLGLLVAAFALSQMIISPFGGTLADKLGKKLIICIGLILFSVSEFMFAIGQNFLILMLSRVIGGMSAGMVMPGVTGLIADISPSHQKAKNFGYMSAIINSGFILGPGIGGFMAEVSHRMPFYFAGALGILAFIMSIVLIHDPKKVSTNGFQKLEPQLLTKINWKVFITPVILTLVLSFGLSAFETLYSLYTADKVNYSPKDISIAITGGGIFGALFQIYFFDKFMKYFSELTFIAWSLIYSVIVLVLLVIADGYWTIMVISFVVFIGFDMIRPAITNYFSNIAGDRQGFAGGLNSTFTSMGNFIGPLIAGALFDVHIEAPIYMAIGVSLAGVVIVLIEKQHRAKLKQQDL

Compound: Cc1c(O)cc2oc3c(c(=O)c2c1O)-c1ccccc1OC3O (stereo not drawn) [boeravinone B, 6,9,11-trihydroxy-10-methylchromeno[3,4-b]chromen-12(6H)-one]
- ethidium bromide efflux and accumulation in NorA-overexpressing SA-1199B cells; [1]: in cells treated with boeravinone B, the efflux of ethidium bromide was prevented, resulting in the prolonged retention of fluorescence

Compound: CC[n+]1c(-c2ccccc2)c2cc(N)ccc2c2ccc(N)cc21 [ethidium bromide]
- fluorescent efflux and accumulation in NorA-overexpressing, wild-type and knocko [2]: a rapid decrease occurred in the fluorescence because of the NorA-mediated efflux of ethidium bromide

Compound: COC(=O)[C@H]1[C@H]2C[C@@H]3c4[nH]c5cc(OC)ccc5c4CCN3C[C@H]2C[C@@H](OC(=O)c2cc(OC)c(OC)c(OC)c2)[C@@H]1OC [reserpine]
- ethidium bromide efflux and accumulation in NorA-overexpressing SA-1199B cells; [3]: Reserpine, a known efflux pump inhibitor, was used as the positive control in both studies.
